Source: patent publication US9617244B2, “Antibacterial quinoline derivatives” (JANSSEN PHARMACEUTICA NV, priority 2012, dated 2017)
Converted amounts (≈) assume the structure as drawn.

What was measured:
[1] = system: Staphylococcus aureus (ATCC29213); assay: In-vitro anti-bacterial activity, microtitre plate assay, IC90 determination (non-mycobacterial strains); format: cell-based; settings: 90% inhibitory concentration for bacterial growth, resazurin fluorescence; for IC90: Staphylococcus aureus, ATCC29213, 24 h, read-out: IC90 STA B29213; for IC90 STA B29213: 24 hours
Procedure, shortened: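 Inoculum of about 100 TCID50 (10–60 CFU/well) in Mueller-Hinton broth, serial five-fold compound dilutions, 24 h at 37 °C in air. Growth read by resazurin fluorescence (ex 530/em 590 nm); IC90 in μg/ml as 90% growth inhibition.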

[2] = system: Mycobacterium smegmatis (ATCC607); assay: In-vitro anti-bacterial activity against strain M. Smegmatis ATCC607; format: cell-based; settings: 90% inhibitory concentration for bacterial growth, Alamar Blue fluorescence; for IC90 MSM 607: 48 hours; for IC90: Mycolicibacterium smegmatis, ATCC607, 48 h, read-out: IC90 MSM 607
Procedure, shortened: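 Serial five-fold compound dilutions in BSA-supplemented wells, inoculated with ~250 CFU/well in Mueller-Hinton broth, incubated 48 h at 37 °C, 5% CO2. Growth read by Alamar Blue fluorescence (ex 530/em 590 nm); IC90 in μg/ml.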

SMILES | IC90 [1] | IC90 MSM 607 [2] | IC90 STA B29213 [1] | IC90 [2]
CSc1ccc2[nH]c(=O)c(C(c3ccc(Cl)cc3)C3(O)CCNC(Cc4ccc(F)cc4)C3)cc2c1 (stereo not shown) [Compound 333] | – | 3.53 µg/mL (≈ 6.75 µM) | 2.50 µg/mL (≈ 4.78 µM) | –
CSc1ccc2[nH]c(=O)c(C(c3ccc(Cl)cc3)C3(O)CCNC(Cc4ccc(F)cc4)C3)cc2c1 (stereo not shown) [Compound 334] | – | 7.04 µg/mL (≈ 13.5 µM) | 8.87 µg/mL (≈ 17 µM) | –
O=c1[nH]c2ccc(Br)cc2cc1C(c1ccc(Cl)cc1)C1(O)CCNCC1Cc1cccc(F)c1 (stereo not shown) [Compound 336] | – | 7.00 µg/mL (≈ 12.6 µM) | 3.51 µg/mL (≈ 6.31 µM) | –
O=c1[nH]c2ccc(Br)cc2cc1C(c1ccc(Cl)cc1)C1(O)CCNC(Cc2ccc(F)cc2)C1 (stereo not shown) [Compound 341] | – | – | 2.36 µg/mL (≈ 4.25 µM) | 4.71 µg/mL (≈ 8.47 µM)
O=c1[nH]c2ccc(Br)cc2cc1C(c1ccc(Cl)cc1)C1(O)CCNC(Cc2ccc(F)cc2)C1 (stereo not shown) [Compound 342] | – | 3.74 µg/mL (≈ 6.73 µM) | 7.46 µg/mL (≈ 13.4 µM) | –
O=c1[nH]c2ccc(Cl)cc2cc1C(c1ccc(Cl)cc1)C1(O)CCNC(Cc2ccc(F)cc2)C1 (stereo not shown) [Compound 343] | 6.9 µg/mL (≈ 13.5 µM) | – | – | 4.35 µg/mL (≈ 8.51 µM)
O=c1[nH]c2ccc(Cl)cc2cc1C(c1ccc(Cl)cc1)C1(O)CCNC(Cc2ccc(F)cc2)C1 (stereo not shown) [Compound 344] | – | 8.68 µg/mL (≈ 17 µM) | 3.46 µg/mL (≈ 6.77 µM) | –
CSc1ccc(C(c2cc3cc(Cl)ccc3[nH]c2=O)C2(O)CCNC(c3ccc(F)cc3C)C2)cc1 (stereo not shown) [Compound 349] | – | 7.04 µg/mL (≈ 13.5 µM) | 7.04 µg/mL (≈ 13.5 µM) | –
CSc1ccc(C(c2cc3cc(Cl)ccc3[nH]c2=O)C2(O)CCNC(c3ccc(F)cc3C)C2)cc1 (stereo not shown) [Compound 350] | – | 1.77 µg/mL (≈ 3.38 µM) | 2.80 µg/mL (≈ 5.35 µM) | –
C=CC1CC(O)(C(c2ccc(Cl)cc2)c2cc3cc(Br)ccc3[nH]c2=O)CCN1 (stereo not shown) [Compound 359] | 12.8 µg/mL (≈ 27.1 µM) | – | – | 10.2 µg/mL (≈ 21.5 µM)
C=CC1CC(O)(C(c2ccc(Cl)cc2)c2cc3cc(Br)ccc3[nH]c2=O)CCN1 (stereo not shown) [Compound 360] | – | 6.42 µg/mL (≈ 13.6 µM) | 12.82 µg/mL (≈ 27.1 µM) | –
C=CC1CC(O)(C(c2ccc(Cl)cc2)c2cc3cc(Br)ccc3[nH]c2=O)CCN1 (stereo not shown) [Compound 361] | – | 6.42 µg/mL (≈ 13.6 µM) | 12.82 µg/mL (≈ 27.1 µM) | –
C=CC1CC(O)(C(c2ccc(Cl)cc2)c2cc3cc(Br)ccc3[nH]c2=O)CCN1 (stereo not shown) [Compound 362] | – | 10.18 µg/mL (≈ 21.5 µM) | 12.82 µg/mL (≈ 27.1 µM) | –
O=c1[nH]c2ccc(Br)cc2cc1C(c1ccc(Cl)cc1)C1(O)CCNC(Cc2ccc(F)cc2)C1 (stereo not shown) [Compound 363] | – | 3.74 µg/mL (≈ 6.73 µM) | 1.87 µg/mL (≈ 3.36 µM) | –
O=c1[nH]c2ccc(Br)cc2cc1C(c1ccc(Cl)cc1)C1(O)CCNC(Cc2ccc(F)cc2)C1 (stereo not shown) [Compound 364] | – | 2.97 µg/mL (≈ 5.34 µM) | 3.74 µg/mL (≈ 6.73 µM) | –
O=c1[nH]c2ccc(Br)cc2cc1C(c1ccc(Cl)cc1)C1(O)CCNC(Cc2ccc(F)cc2)C1 (stereo not shown) [Compound 365] | – | 3.74 µg/mL (≈ 6.73 µM) | 3.74 µg/mL (≈ 6.73 µM) | –
O=c1[nH]c2ccc(F)cc2cc1C(c1ccc(Cl)cc1)C1(O)CCNC(Cc2ccccc2)C1 (stereo not shown) [Compound 375] | – | 12.90 µg/mL (≈ 27 µM) | >12.90 µg/mL | –
O=c1[nH]c2ccc(F)cc2cc1C(c1ccc(Cl)cc1)C1(O)CCNC(Cc2ccccc2)C1 (stereo not shown) [Compound 376] | – | 2.57 µg/mL (≈ 5.39 µM) | 3.24 µg/mL (≈ 6.79 µM) | –
Cc1cc(F)ccc1C1CC(O)(C(c2ccc(S(C)(=O)=O)cc2)c2cc3cc(Cl)ccc3[nH]c2=O)CCN1 (stereo not shown) [Compound 377] | > 14.9 µg/mL | – | – | > 14.9 µg/mL
Cc1cc(F)ccc1C1CC(O)(C(c2ccc(S(C)(=O)=O)cc2)c2cc3cc(Cl)ccc3[nH]c2=O)CCN1 (stereo not shown) [Compound 378] | – | 11.80 µg/mL (≈ 21.3 µM) | 14.86 µg/mL (≈ 26.8 µM) | –
COc1nc2ccc(Br)cc2cc1C(c1ccc(Cl)cc1)C1(O)CCNC(Cc2ccccn2)C1 (stereo not shown) [Compound 379] | – | 2.77 µg/mL (≈ 5.01 µM) | 3.49 µg/mL (≈ 6.31 µM) | –
COc1nc2ccc(Br)cc2cc1C(c1ccc(Cl)cc1)C1(O)CCNC(Cc2ccccn2)C1 (stereo not shown) [Compound 380] | – | 4.10 µg/mL (≈ 7.42 µM) | 5.16 µg/mL (≈ 9.33 µM) | –

Now from value to molecule:

IC90 [1] | IC90 MSM 607 [2] | IC90 STA B29213 [1] | IC90 [2] | SMILES
2.4 µg/mL (≈ 4.08 µM) | 1.91 µg/mL (≈ 3.25 µM) | – | – | COc1nc2ccc(Br)cc2cc1C(c1ccc(Cl)cc1)C1(O)CCNC(Cc2ccc(F)cc2F)C1 (stereo not shown) [Compound 313]
– | 4.83 µg/mL (≈ 8.42 µM) | 3.05 µg/mL (≈ 5.31 µM) | – | O=c1[nH]c2ccc(Br)cc2cc1C(c1ccc(Cl)cc1)C1(O)CCNC(Cc2ccc(F)cc2F)C1 (stereo not shown) [Compound 314]
– | 3.84 µg/mL (≈ 6.69 µM) | 3.84 µg/mL (≈ 6.69 µM) | – | O=c1[nH]c2ccc(Br)cc2cc1C(c1ccc(Cl)cc1)C1(O)CCNC(Cc2ccc(F)cc2F)C1 (stereo not shown) [Compound 315]
– | 3.05 µg/mL (≈ 5.31 µM) | 3.84 µg/mL (≈ 6.69 µM) | – | O=c1[nH]c2ccc(Br)cc2cc1C(c1ccc(Cl)cc1)C1(O)CCNC(Cc2ccc(F)cc2F)C1 (stereo not shown) [Compound 316]
– | 1.92 µg/mL (≈ 3.35 µM) | 1.92 µg/mL (≈ 3.35 µM) | – | O=c1[nH]c2ccc(Br)cc2cc1C(c1ccc(Cl)cc1)C1(O)CCNC(Cc2ccc(F)cc2F)C1 (stereo not shown) [Compound 317]
– | 2.40 µg/mL (≈ 4.08 µM) | 2.40 µg/mL (≈ 4.08 µM) | – | COc1nc2ccc(Br)cc2cc1C(c1ccc(Cl)cc1)C1(O)CCNC(Cc2ccc(F)cc2F)C1 (stereo not shown) [Compound 319]
– | 12.18 µg/mL (≈ 21.2 µM) | 15.33 µg/mL (≈ 26.7 µM) | – | O=c1[nH]c2ccc(Br)cc2cc1C(c1ccc(Cl)cc1)C1(O)CCNC(Cc2ccc(F)cc2F)C1 (stereo not shown) [Compound 321]
– | 3.85 µg/mL (≈ 6.71 µM) | 2.43 µg/mL (≈ 4.23 µM) | – | O=c1[nH]c2ccc(Br)cc2cc1C(c1ccc(Cl)cc1)C1(O)CCNC(Cc2ccc(F)cc2F)C1 (stereo not shown) [Compound 322]
– | 6.10 µg/mL (≈ 10.6 µM) | 7.68 µg/mL (≈ 13.4 µM) | – | O=c1[nH]c2ccc(Br)cc2cc1C(c1ccc(Cl)cc1)C1(O)CCNC(Cc2ccc(F)cc2F)C1 (stereo not shown) [Compound 323]
– | 3.43 µg/mL (≈ 5.98 µM) | 1.93 µg/mL (≈ 3.36 µM) | – | O=c1[nH]c2ccc(Br)cc2cc1C(c1ccc(Cl)cc1)C1(O)CCNC(Cc2ccc(F)cc2F)C1 (stereo not shown) [Compound 324]
– | 19.04 µg/mL (≈ 32.4 µM) | >19.04 µg/mL | – | COc1nc2ccc(S(C)(=O)=O)cc2cc1C(c1cccc(Cl)c1)C1(O)CCNC(Cc2ccc(F)cc2F)C1 (stereo not shown) [Compound 325]
– | 4.78 µg/mL (≈ 8.14 µM) | 5.37 µg/mL (≈ 9.15 µM) | – | COc1nc2ccc(S(C)(=O)=O)cc2cc1C(c1cccc(Cl)c1)C1(O)CCNC(Cc2ccc(F)cc2F)C1 (stereo not shown) [Compound 326]
– | >15.31 µg/mL | >15.31 µg/mL | – | CS(=O)(=O)c1ccc2[nH]c(=O)c(C(c3cccc(Cl)c3)C3(O)CCNC(Cc4ccc(F)cc4F)C3)cc2c1 (stereo not shown) [Compound 327]
– | 12.16 µg/mL (≈ 21.2 µM) | 15.31 µg/mL (≈ 26.7 µM) | – | CS(=O)(=O)c1ccc2[nH]c(=O)c(C(c3cccc(Cl)c3)C3(O)CCNC(Cc4ccc(F)cc4F)C3)cc2c1 (stereo not shown) [Compound 328]
– | 7.27 µg/mL (≈ 13.4 µM) | 7.27 µg/mL (≈ 13.4 µM) | – | CSc1ccc2[nH]c(=O)c(C(c3cccc(Cl)c3)C3(O)CCNC(Cc4ccc(F)cc4F)C3)cc2c1 (stereo not shown) [Compound 329]
– | 1.04 µg/mL (≈ 2.04 µM) | 2.08 µg/mL (≈ 4.09 µM) | – | COc1nc2ccc(F)cc2cc1C(c1ccc(Cl)cc1)C1(O)CCNC(c2ccc(F)cc2C)C1 (stereo not shown) [Compound 330]
– | 0.94 µg/mL (≈ 1.85 µM) | 1.06 µg/mL (≈ 2.08 µM) | – | COc1nc2ccc(F)cc2cc1C(c1ccc(Cl)cc1)C1(O)CCNC(c2ccc(F)cc2C)C1 (stereo not shown) [Compound 331]
– | 2.20 µg/mL (≈ 4.32 µM) | 4.38 µg/mL (≈ 8.61 µM) | – | COc1nc2ccc(F)cc2cc1C(c1ccc(Cl)cc1)C1(O)CCNC(c2ccc(F)cc2C)C1 (stereo not shown) [Compound 332]
– | 3.48 µg/mL (≈ 6.62 µM) | 4.38 µg/mL (≈ 8.34 µM) | – | COc1nc2ccc(Cl)cc2cc1C(c1ccc(Cl)cc1)C1(O)CCNC(Cc2ccc(F)cc2)C1 (stereo not shown) [Compound 345]
– | 1.69 µg/mL (≈ 3.22 µM) | 2.13 µg/mL (≈ 4.05 µM) | – | COc1nc2ccc(Cl)cc2cc1C(c1ccc(Cl)cc1)C1(O)CCNC(Cc2ccc(F)cc2)C1 (stereo not shown) [Compound 346]
– | 1.70 µg/mL (≈ 3.24 µM) | 4.27 µg/mL (≈ 8.13 µM) | – | COc1nc2ccc(Cl)cc2cc1C(c1ccc(Cl)cc1)C1(O)CCNC(Cc2ccc(F)cc2)C1 (stereo not shown) [Compound 347]
– | 1.67 µg/mL (≈ 3.18 µM) | 4.19 µg/mL (≈ 7.97 µM) | – | COc1nc2ccc(Cl)cc2cc1C(c1ccc(Cl)cc1)C1(O)CCNC(Cc2ccc(F)cc2)C1 (stereo not shown) [Compound 348]
– | 1.73 µg/mL (≈ 3.22 µM) | 2.18 µg/mL (≈ 4.06 µM) | – | COc1nc2ccc(Cl)cc2cc1C(c1ccc(SC)cc1)C1(O)CCNC(c2ccc(F)cc2C)C1 (stereo not shown) [Compound 353]
– | 3.14 µg/mL (≈ 5.85 µM) | 3.95 µg/mL (≈ 7.35 µM) | – | COc1nc2ccc(Cl)cc2cc1C(c1ccc(SC)cc1)C1(O)CCNC(c2ccc(F)cc2C)C1 (stereo not shown) [Compound 354]
– | 14.06 µg/mL (≈ 24.7 µM) | 17.71 µg/mL (≈ 31.1 µM) | – | COc1nc2ccc(Cl)cc2cc1C(c1ccc(S(C)(=O)=O)cc1)C1(O)CCNC(c2ccc(F)cc2C)C1 (stereo not shown) [Compound 368]
– | 4.57 µg/mL (≈ 8.03 µM) | 9.12 µg/mL (≈ 16 µM) | – | COc1nc2ccc(Cl)cc2cc1C(c1ccc(S(C)(=O)=O)cc1)C1(O)CCNC(c2ccc(F)cc2C)C1 (stereo not shown) [Compound 369]
– | 1.55 µg/mL (≈ 3.16 µM) | 3.09 µg/mL (≈ 6.29 µM) | – | COc1nc2ccc(F)cc2cc1C(c1ccc(Cl)cc1)C1(O)CCNC(Cc2ccccc2)C1 (stereo not shown) [Compound 370]
– | 1.75 µg/mL (≈ 3.17 µM) | 3.49 µg/mL (≈ 6.31 µM) | – | COc1nc2ccc(Br)cc2cc1C(c1ccc(Cl)cc1)C1(O)CCNC(Cc2ccccn2)C1 (stereo not shown) [Compound 381]
